# Reference: patent publication US20240383923A1, “HETEROARYL DERIVATIVE AND USE THEREOF” (VORONOI INC., priority 2022, published 2024)
# Test system: BT-474 cancer cells
# Assay: Inhibition of BT-474 cell proliferation (CellTiter-Glo)
# Assay type: cell-based
# Conditions: Homo sapiens, BT-474 cells, 120 hours
# Protocol: BT-474 cancer cells were cultured by using RPMI-1640 medium containing 20% FBS. The BT-474 cancer cells were seeded to a white clear bottom 96 well plate (Corning) at 5,000 cells per well 48 hours before the BT-474 cancer cells were treated with Example Compounds. Example Compounds were diluted in dimethylsulfoxide (3-fold diluted, total 11 concentrations) and 1 μL each was injected so that the final concentration was 0.2 nM to 10 μM. For the measurement of living cells, the cells were stored at room temperature for 10 minutes using the CellTiter-Glo cell viability reagent (Promega) after a predetermined time (120 hours) after the treatment of Example Compounds, and then the luminescence intensity was measured using a reader (SynergyNeo, Biotek). Each test was repeated three times.
# The result value was calculated as a cell growth rate (%) compared to a control group. Graphs were plotted and GI50 values were calculated using the GraphPad Prism version 8.0 program, and the results are shown in Table 18 below.
row,Compound,GI50 [nM]
1,"COc1cc2ncnc(Nc3cc(C)c(Oc4ccc5nccnc5c4)cc3OC)c2cc1NC(=O)/C(F)=C/[C@H]1CCCN1C [Example 63, (R,Z)-2-fluoro-N-(7-methoxy-4-((2-methoxy-5-methyl-4-(quinoxalin-6-yloxy)phenyl)amino)quinazolin-6-yl)-3-(1-methylpyrrolidin-2-yl)acrylamide]",≤ 50
2,"COc1cc2ncnc(Nc3cc(C)c(Oc4ccc5ccccc5c4)cc3OC)c2cc1NC(=O)/C(F)=C/[C@H]1CCCN1C [Example 64, (R,Z)-2-fluoro-N-(7-methoxy-4-((2-methoxy-5-methyl-4-(naphthalen-2-yloxy)phenyl)amino)quinazolin-6-yl)-3-(1-methylpyrrolidin-2-yl)acrylamide]",≤ 50
3,"COc1cc2ncnc(Nc3cc(C)c(Oc4ccc5ccccc5c4)cc3OC)c2cc1NC(=O)/C(F)=C\[C@H]1CCCN1C [Example 65, (R,E)-2-fluoro-N-(7-methoxy-4-((2-methoxy-5-methyl-4-(naphthalen-2-yloxy)phenyl)amino)quinazolin-6-yl)-3-(1-methylpyrrolidin-2-yl)acrylamide]",≤ 50
4,"COc1cc2ncnc(Nc3cc(C)c(Oc4ccc5oc(C)nc5c4)cc3OC)c2cc1NC(=O)/C(F)=C/[C@H]1CCCN1C [Example 68, (R,Z)-2-fluoro-N-(7-methoxy-4-((2-methoxy-5-methyl-4-((2-methylbenzo[d]oxazol-5-yl)oxy)phenyl)amino)quinazolin-6-yl)-3-(1-methylpyrrolidin-2-yl)acrylamide]",≤ 50
5,"COc1cc2ncnc(Nc3cc(C)c(Oc4ccc5c(c4)NC(O)O5)cc3OC)c2cc1NC(=O)/C(F)=C/[C@H]1CCCN1C (stereo partly drawn) [Example 70, (Z)-2-fluoro-N-(4-((4-((2-hydroxy-2,3-dihydrobenzo[d]oxazol-5-yl)oxy)-2-methoxy-5-methylphenyl)amino)-7-methoxyquinazolin-6-yl)-3-((R)-1-methylpyrrolidin-2-yl)acrylamide]",≤ 50
6,"COc1cc2ncnc(Nc3cc(C)c(Oc4ccn(C)c(=O)c4)cc3OC)c2cc1NC(=O)/C(F)=C\[C@H]1CCCN1C [Example 71, (R,E)-2-fluoro-N-(7-methoxy-4-((2-methoxy-5-methyl-4-((1-methyl-2-oxo-1,2-dihydropyridin-4-yl)oxy)phenyl)amino)quinazolin-6-yl)-3-(1-methylpyrrolidin-2-yl)acrylamide]",≤ 50
7,"COc1cc2ncnc(Nc3cc(C)c(Oc4ccc5ncnn5c4)cc3OC)c2cc1NC(=O)/C(F)=C\[C@H]1CCCN1C [Example 72, (R,E)-N-(4-((4-([1,2,4]triazolo[1,5-a]pyridin-6-yloxy)-2-methoxy-5-methylphenyl)amino)-7-methoxyquinazolin-6-yl)-2-fluoro-3-(1-methylpyrrolidin-2-yl)acrylamide]",≤ 50
8,"COc1cc2ncnc(Nc3cc(C)c(Oc4ccc5ncnn5c4)cc3OC)c2cc1NC(=O)/C(F)=C/[C@H]1CCCN1C [Example 73, (R,Z)—N-(4-((4-([1,2,4]triazolo[1,5-a]pyridin-6-yloxy)-2-methoxy-5-methylphenyl)amino)-7-methoxyquinazolin-6-yl)-2-fluoro-3-(1-methylpyrrolidin-2-yl)acrylamide]",≤ 50
9,"COc1cc2ncnc(Nc3cc(C)c(Oc4cnc5ccnn5c4)cc3OC)c2cc1NC(=O)/C(F)=C\[C@H]1CCCN1C [Example 79, (R,E)-2-fluoro-N-(7-methoxy-4-((2-methoxy-5-methyl-4-(pyrazolo[1,5-a]pyrimidin-6-yloxy)phenyl)amino)quinazolin-6-yl)-3-(1-methylpyrrolidin-2-yl)acrylamide]",≤ 50
10,"COc1cc2ncnc(Nc3cc(C)c(Oc4cnc5ccnn5c4)cc3OC)c2cc1NC(=O)/C(F)=C/[C@H]1CCCN1C [Example 80, (R,Z)-2-fluoro-N-(7-methoxy-4-((2-methoxy-5-methyl-4-(pyrazolo[1,5-a]pyrimidin-6-yloxy)phenyl)amino)quinazolin-6-yl)-3-(1-methylpyrrolidin-2-yl)acrylamide]",≤ 50

# Next, values leading:
row,GI50 [nM],Compound
1,≤ 50,"COc1cc2ncnc(Nc3cc(C)c(Oc4ccc5ncsc5c4)cc3OC)c2cc1NC(=O)/C(F)=C\[C@H]1CCCN1C [Example 81, (R,E)-N-(4-((4-(benzo[d]thiazol-6-yloxy)-2-methoxy-5-methylphenyl)amino)-7-methoxyquinazolin-6-yl)-2-fluoro-3-(1-methylpyrrolidin-2-yl)acrylamide]"
2,≤ 50,"COc1cc2ncnc(Nc3cc(C)c(Oc4ccc5ncsc5c4)cc3OC)c2cc1NC(=O)/C(F)=C/[C@H]1CCCN1C [Example 82, (R,Z)—N-(4-((4-(benzo[d]thiazol-6-yloxy)-2-methoxy-5-methylphenyl)amino)-7-methoxyquinazolin-6-yl)-2-fluoro-3-(1-methylpyrrolidin-2-yl)acrylamide]"
3,≤ 50,"COc1cc2ncnc(Nc3cc(C)c(Oc4ccc5scnc5c4)cc3OC)c2cc1NC(=O)/C(F)=C\[C@H]1CCCN1C [Example 84, (R,E)-N-(4-((4-(benzo[d]thiazol-5-yloxy)-2-methoxy-5-methylphenyl)amino)-7-methoxyquinazolin-6-yl)-2-fluoro-3-(1-methylpyrrolidin-2-yl)acrylamide]"
4,≤ 50,"COc1cc2ncnc(Nc3cc(C)c(Oc4ccc5c(c4)OCO5)cc3OC)c2cc1NC(=O)/C(F)=C\[C@H]1CCCN1C [Example 85, (R,E)-N-(4-((4-(benzo[d][1,3]dioxol-5-yloxy)-2-methoxy-5-methylphenyl)amino)-7-methoxyquinazolin-6-yl)-2-fluoro-3-(1-methylpyrrolidin-2-yl)acrylamide]"
5,≤ 50,"COc1cc2ncnc(Nc3cc(C)c(Oc4ccc5c(c4)OCO5)cc3OC)c2cc1NC(=O)/C(F)=C/[C@H]1CCCN1C [Example 86, (R,Z)—N-(4-((4-(benzo[d][1,3]dioxol-5-yloxy)-2-methoxy-5-methylphenyl)amino)-7-methoxyquinazolin-6-yl)-2-fluoro-3-(1-methylpyrrolidin-2-yl)acrylamide]"
6,≤ 50,"COc1cc2ncnc(Nc3cc(C)c(Oc4ccc5cccnc5c4)cc3OC)c2cc1NC(=O)/C(F)=C/[C@H]1CCCN1C [Example 87, (R,Z)-2-fluoro-N-(7-methoxy-4-((2-methoxy-5-methyl-4-(quinolin-7-yloxy)phenyl)amino)quinazolin-6-yl)-3-(1-methylpyrrolidin-2-yl)acrylamide]"
7,≤ 50,"COc1cc2ncnc(Nc3cc(C)c(Oc4ccc5cccnc5c4)cc3OC)c2cc1NC(=O)/C(F)=C\[C@H]1CCCN1C [Example 88, (R,E)-2-fluoro-N-(7-methoxy-4-((2-methoxy-5-methyl-4-(quinolin-7-yloxy)phenyl)amino)quinazolin-6-yl)-3-(1-methylpyrrolidin-2-yl)acrylamide]"
8,≤ 50,"COc1cc2ncnc(Nc3cc(C)c(Oc4ccc5cnn(C)c5c4)cc3OC)c2cc1NC(=O)/C(F)=C\[C@H]1CCCN1C [Example 89, (R,E)-2-fluoro-N-(7-methoxy-4-((2-methoxy-5-methyl-4-((1-methyl-1H-indazol-6-yl)oxy)phenyl)amino)quinazolin-6-yl)-3-(1-methylpyrrolidin-2-yl)acrylamide]"
9,≤ 50,"COc1cc2ncnc(Nc3cc(C)c(Oc4ccc5cnn(C)c5c4)cc3OC)c2cc1NC(=O)/C(F)=C/[C@H]1CCCN1C [Example 90, (R,Z)-2-fluoro-N-(7-methoxy-4-((2-methoxy-5-methyl-4-((1-methyl-1H-indazol-6-yl)oxy)phenyl)amino)quinazolin-6-yl)-3-(1-methylpyrrolidin-2-yl)acrylamide]"
